Experimental data published in patent US11345700B2, “Methods of preparing inhibitors of influenza viruses replication” (priority 2013, dated 2022).
Marks after values point to notes of the source that are not given here.

Columns and labels:
[1] = tested on: influenza A/Wisconsin/67/2005 (H3N2) challenge strain virus; assay: Human influenza challenge: rates of seroconversion; assay type: in vivo, healthy volunteers (humans); conditions: for Serology Sero-conversion, n/N: ≥4-fold increase in anti-influenza antibody titer at Follow-up Visit vs baseline
influenza A virus = assay: Mouse influenza A model: prophylactic dose response and delayed treatment, survival and body weight loss; assay type: in vivo, mice
Text: The prophylactic dose response of Compound (1) was investigated in the mouse influenza A model. […] All of the mice that received vehicle alone succumbed to the infection by study day 9 and had lost, on average, ˜32% of their body weight (BW).
All vehicle controls succumbed to disease by study days 8 or 9.

influenza A = assay: Mouse model of influenza A: lung viral titers; assay type: in vivo, mice; conditions: for Log10 Reduction vs. Vehicle: study day 6; for Lung Viral Titer: titers on study day 6
[2] = tested on: influenza A/Wisconsin/67/2005 (H3N2) challenge strain virus; assay: Human influenza challenge: nasal influenza shedding by qRT-PCR; assay type: in vivo, healthy volunteers (humans)
Description: Subjects underwent thrice daily nasal swabs, and kept thrice daily score cards for clinical symptoms from Days 1-7, and were discharged from the facility on Day 8, with safety follow-up at approximately Day 28. Nasal swabs were assayed for influenza virus in cell culture (primary analysis) and by qRT-PCR (secondary analysis).

[3] = Pooled Compound (1) dose groups
[4] = treatment start +24 h relative to infection, 1 mg/kg BID
[5] = treatment start +24 h relative to infection, 3 mg/kg BID
[6] = treatment start +24 h relative to infection, 10 mg/kg BID
[7] = treatment start +48 h relative to infection, 1 mg/kg BID
[8] = treatment start +48 h relative to infection, 3 mg/kg BID
[9] = treatment start +48 h relative to infection, 10 mg/kg BID
[10] = treatment start +72 h relative to infection, 1 mg/kg BID
[11] = treatment start +72 h relative to infection, 3 mg/kg BID
[12] = treatment start +72 h relative to infection, 10 mg/kg BID
[13] = treatment start +96 h relative to infection, 3 mg/kg BID
[14] = treatment start +96 h relative to infection, 10 mg/kg BID
[15] = treatment start +120 h relative to infection, 3 mg/kg BID
[16] = treatment start +120 h relative to infection, 10 mg/kg BID
[17] = treatment start −2 h relative to infection, 0.1 mg/kg BID
[18] = treatment start −2 h relative to infection, 0.3 mg/kg BID
[19] = treatment start −2 h relative to infection, 1 mg/kg BID
[20] = treatment start −2 h relative to infection, 3 mg/kg BID
[21] = treatment start −2 h relative to infection, 10 mg/kg BID
[22] = Study 1, 30 mg/kg BID from 24 h post infection for 5 days
[23] = Study 2, 3 mg/kg BID from 24 h post infection for 5 days
[24] = Study 2, 10 mg/kg BID from 24 h post infection for 5 days
[25] = Study 2, 30 mg/kg BID from 24 h post infection for 5 days

O=C(O)[C@H]1[C@H]2CC[C@H](CC2)[C@@H]1Nc1nc(-c2c[nH]c3ncc(F)cc23)ncc1F [Compound (1)]
Serology Sero-conversion (%) ([1]; 100 mg QD): (69%) | Serology Sero-conversion, n/N ([1]; 100 mg QD): 11/16 | Serology Sero-conversion (%) ([1]; 400 mg QD): (47%) | Serology Sero-conversion, n/N ([1]; 400 mg QD): 9/19 | Serology Sero-conversion (%) ([1]; 900/600 mg): (68%) | Serology Sero-conversion, n/N ([1]; 900/600 mg): 13/19 | Serology Sero-conversion (%) ([1]; 1200/600 mg): (67%) | Serology Sero-conversion, n/N ([1]; 1200/600 mg): 12/18 | Serology Sero-conversion (%) [1, 3]: (63%) | Serology Sero-conversion, n/N [1, 3]: 45/72 | survival (mice) (influenza A virus; 0.3 mg/kg BID for 10 days, initiated 2 h prior to infection): 2/8 | Percent Body Weight Loss on Study Day 8 (influenza A virus; [4]): −23.4% | Percent Survival (influenza A virus; [4]): 100% | Percent Body Weight Loss on Study Day 8 (influenza A virus; [5]): −14.2% | Percent Survival (influenza A virus; [5]): 100% | Percent Body Weight Loss on Study Day 8 (influenza A virus; [6]): −6.2% | Percent Survival (influenza A virus; [6]): 100% | Percent Body Weight Loss on Study Day 8 (influenza A virus; [7]): −22.5% | Percent Survival (influenza A virus; [7]): 100% | Percent Body Weight Loss on Study Day 8 (influenza A virus; [8]): −10.9% | Percent Survival (influenza A virus; [8]): 100% | Percent Body Weight Loss on Study Day 8 (influenza A virus; [9]): −7.1% | Percent Survival (influenza A virus; [9]): 100% | Percent Body Weight Loss on Study Day 8 (influenza A virus; [10]): −29.4% | Percent Survival (influenza A virus; [10]): 100% | Percent Body Weight Loss on Study Day 8 (influenza A virus; [11]): −23.2% | Percent Survival (influenza A virus; [11]): 100% | Percent Body Weight Loss on Study Day 8 (influenza A virus; [12]): −17.4% | Percent Survival (influenza A virus; [12]): 100% | Percent Body Weight Loss on Study Day 8 (influenza A virus; [13]): −27.3% | Percent Survival (influenza A virus; [13]): 100% | Percent Body Weight Loss on Study Day 8 (influenza A virus; [14]): −25.5% | Percent Survival (influenza A virus; [14]): 100% | Percent Body Weight Loss on Study Day 8 (influenza A virus; [15]): −32.6% | Percent Survival (influenza A virus; [15]): 12.5% | Percent Body Weight Loss on Study Day 8 (influenza A virus; [16]): −34.4% | Percent Survival (influenza A virus; [16]): 37.5% | Percent Body Weight Loss on Study Day 8 (influenza A virus; [17]): −31.9% | Percent Survival (influenza A virus; [17]): 0% | Percent Body Weight Loss on Study Day 8 (influenza A virus; [18]): −30.4% | Percent Survival (influenza A virus; [18]): 25% | Percent Body Weight Loss on Study Day 8 (influenza A virus; [19]): −16.8% | Percent Survival (influenza A virus; [19]): 100% | Percent Body Weight Loss on Study Day 8 (influenza A virus; [20]): −8.7% | Percent Survival (influenza A virus; [20]): 100% | Percent Body Weight Loss on Study Day 8 (influenza A virus; [21]): −2.8% | Percent Survival (influenza A virus; [21]): 100% | Log10 Reduction vs. Vehicle (influenza A; [22]): −2.25*** | Lung Viral Titer (influenza A; [22]): 3.95 Log10 TCID50 | Log10 Reduction vs. Vehicle (influenza A; [23]): −1.04 | Lung Viral Titer (influenza A; [23]): 5.24*** Log10 TCID50 | Log10 Reduction vs. Vehicle (influenza A; [24]): −1.08 | Lung Viral Titer (influenza A; [24]): 5.20*** Log10 TCID50 | Log10 Reduction vs. Vehicle (influenza A; [25]): −1.75 | Lung Viral Titer (influenza A; [25]): 4.53*** Log10 TCID50 | Viral Sheeding by qRT-PCR AUC, median ([2]; 100 mg QD (N = 12)): 6.05 log10 copies/mL*Day | Viral Sheeding by qRT-PCR Duration, median ([2]; 100 mg QD (N = 12)): 0.96 days | Viral Sheeding by qRT-PCR Peak, mean ([2]; 100 mg QD (N = 12)): 4.36 log10 TCID50/mL | Viral Sheeding by qRT-PCR AUC, median ([2]; 400 mg QD (N = 12)): 4.90 log10 copies/mL*Day
